29 molecules from US10189809B2, “SGC stimulators” (Ironwood Pharmaceuticals, Inc., priority 2010, dated 2019) can be followed below.

The target of this assay is soluble guanylate cyclase (sGC) (Homo sapiens (Human), UniProt Q02108+Q02153). Put plainly: sGC-HEK-cGMP assay run with SNP incubation (HEK WC assay). The following applies: for EC50: in the presence of 10 uM SNP. In kind it is cell-based. The method, then: Human embryonic kidney cells (HEK293), endogenously expressing soluble guanylate cyclase (sGC), were used to evaluate the activity of test compounds. Compounds stimulating the sGC receptor should cause an increase in the intracellular concentration of cGMP. HEK 293 cells were seeded in Dulbecco's Modification of Eagle's Medium supplemented with fetal bovine serum (10% final) and L-glutamine (2 mM final) in a 200 μL volume at a density of 1×10^5 cells/well in a poly-D-lysine coated 96 well flat bottom plate and grown overnight at 37° C. Medium was aspirated and cells were washed with 1× Hank's Buffered Saline Salt Solution (200 μL). Cells were then incubated for 15 minutes at 37° C. with 0.5 mM 3-isobutyl-1-methylxanthine (200 μL). Test article and sodium nitroprusside were then added to the assay mixture (2 μL each) and incubated at 37° C. for 10 minutes. After the 10 minute incubation, the assay mixture was aspirated and 0.1M HCl (200 μL) was added to the cells. The plate was incubated at 4° C. for 30 minutes in the 0.1M HCl to stop the reaction and lysed the cells. The plates were then centrifuged at 1,200 g for 5 minutes at room temperature. Supernatants were collected and transferred to a new flat bottom 96 well plate for analysis. Vehicle controls were carried out using DMSO (1%). […] Samples were diluted with an equal volume of 1 M Ammonium Acetate (pH 7) to neutralize samples for better chromatography. […] EC50 values were calculated from concentration-response curves generated with GraphPad Prism Software.
Chain of soluble guanylate cyclase (sGC) (Q02153 whole entry): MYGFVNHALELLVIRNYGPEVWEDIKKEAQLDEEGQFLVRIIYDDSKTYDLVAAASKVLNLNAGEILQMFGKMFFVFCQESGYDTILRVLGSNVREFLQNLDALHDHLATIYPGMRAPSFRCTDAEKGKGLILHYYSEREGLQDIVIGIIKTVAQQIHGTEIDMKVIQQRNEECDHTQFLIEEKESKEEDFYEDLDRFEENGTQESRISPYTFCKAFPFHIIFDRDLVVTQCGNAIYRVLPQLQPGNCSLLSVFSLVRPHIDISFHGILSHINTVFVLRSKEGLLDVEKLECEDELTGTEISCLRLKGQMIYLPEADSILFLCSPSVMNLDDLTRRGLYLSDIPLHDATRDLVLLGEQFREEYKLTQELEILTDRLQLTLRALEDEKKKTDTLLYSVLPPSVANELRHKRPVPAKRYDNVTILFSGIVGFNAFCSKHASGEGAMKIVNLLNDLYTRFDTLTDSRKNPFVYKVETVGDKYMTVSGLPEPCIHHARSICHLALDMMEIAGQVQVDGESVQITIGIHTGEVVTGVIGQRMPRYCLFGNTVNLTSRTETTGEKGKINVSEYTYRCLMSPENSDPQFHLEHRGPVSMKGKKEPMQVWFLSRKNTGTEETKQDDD
Chain of soluble guanylate cyclase (sGC) (Q02108 whole entry): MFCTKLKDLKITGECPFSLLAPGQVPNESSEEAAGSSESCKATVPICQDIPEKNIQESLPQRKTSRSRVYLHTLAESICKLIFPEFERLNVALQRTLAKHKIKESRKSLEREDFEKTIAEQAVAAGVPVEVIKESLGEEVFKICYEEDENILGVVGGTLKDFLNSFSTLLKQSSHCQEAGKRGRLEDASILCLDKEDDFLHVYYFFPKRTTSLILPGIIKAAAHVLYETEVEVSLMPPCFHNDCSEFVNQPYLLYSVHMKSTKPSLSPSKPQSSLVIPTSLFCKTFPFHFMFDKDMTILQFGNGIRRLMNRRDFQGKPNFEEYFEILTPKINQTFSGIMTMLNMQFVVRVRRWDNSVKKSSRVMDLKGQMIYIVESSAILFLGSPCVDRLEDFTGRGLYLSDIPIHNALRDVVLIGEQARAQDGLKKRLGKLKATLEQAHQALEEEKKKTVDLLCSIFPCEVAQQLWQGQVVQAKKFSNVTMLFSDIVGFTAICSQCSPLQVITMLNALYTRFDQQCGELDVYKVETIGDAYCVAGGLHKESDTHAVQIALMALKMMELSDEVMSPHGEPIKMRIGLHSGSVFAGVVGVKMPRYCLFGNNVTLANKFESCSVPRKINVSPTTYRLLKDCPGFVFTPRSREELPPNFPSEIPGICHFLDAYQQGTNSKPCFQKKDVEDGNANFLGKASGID

[1] abbreviates: read-out: HEK WC Assay (% Emax at 1 μM with 10 uM SNP).
Where [2] appears, read: read-out: HEK WC Assay (% Emax at 10 μM with 10 uM SNP).
The mark [3] stands for this setting: read-out: HEK WC Assay (% Emax at 30 μM with 10 uM SNP).

Where two headings read alike, the source gives them in different places. Bounds are passed on as bounds.

In general, EC50 refers to the concentration at which the effect is half-maximal. Regarding `CC(C)(Oc1ccccc1)C(=O)Nc1cnc(-c2cc(-c3ccon3)n(Cc3ccccc3F)n2)nc1N` [Compound I-230], the concentration for a half-maximal effect (EC50) lay within 60 to 100 µM. Further, the Emax under setting [1] lay within 10 to 20%. Also, the Emax under setting [2] was 20 to 40%. Further, the Emax under setting [3] is 20 to 40%.
Consider `O=S(=O)(c1ccccc1)c1cnc(-c2cc(-c3ncco3)n(Cc3ccccc3F)n2)nc1O` [Compound I-271], for which the half-maximal effective concentration (EC50) is less than 20 µM. Further, the Emax under setting [1] lay in the range of 40 to 60%. Besides, the Emax under setting [2] lay in the range of 60 to 80%. Further, the Emax under setting [3] lay within 80 to 100%.
For the molecule `CS(=O)(=O)c1ccc(-c2cc(-c3ccccn3)nn2Cc2ccccc2F)nc1` [Compound I-73], under “read-out: HEK WC Assay (% Emax at 10 μM/with 10 uM SNP)”, the Emax at 10 µM lay in the range of 0 to 10%. The Emax at 30 µM (read-out: HEK WC Assay (% Emax at 30 μM/with 10 uM SNP)) lay within 0 to 10%.
Consider `[2H]C([2H])([2H])C(=O)Nc1cnc(-c2cc(-c3ccon3)n(Cc3ccccc3F)n2)nc1N` [Compound I-263], for which the 50% effective concentration (EC50) was less than 20 µM. Under setting [1], the Emax fell in the range of 40 to 60%. Moreover, the Emax under setting [2] is 100 to 120%. Further, under setting [3], the Emax lay within 100 to 120%.
Regarding `CN(C)/C=N/c1cnc(-c2cc(-c3ccon3)n(Cc3ccccc3F)n2)nc1` [Compound I-249, N′-(2-(1-(2-fluorobenzyl)-5-(isoxazol-3-yl)-1H-pyrazol-3-yl)pyrimidin-5-yl)-N,N-dimethylformimidamide], the concentration giving a half-maximal response (EC50) was less than 20 µM. Further, the Emax under setting [1] fell in the range of 20 to 40%. Besides, under setting [2], the Emax lay within 40 to 60%. Also, under setting [3], the Emax was 60 to 80%.
For `CC(C)(CO)C(=O)Nc1cnc(-c2cc(-c3ccon3)n(Cc3ccccc3F)n2)nc1N` [Compound I-265] the same measures were less than 20 µM, 40 to 60%, 60 to 80% and 80 to 100%.
Consider `C=CC(C)(C)C(=O)Nc1cnc(-c2cc(-c3ccon3)n(Cc3ccccc3F)n2)nc1N` [Compound I-246], for which the concentration giving a half-maximal response (EC50) is less than 20 µM. Moreover, under setting [1], the Emax was 60 to 80%. In addition, the Emax under setting [2] lay in the range of 100 to 120%. Also, the Emax under setting [3] was in the range of 100 to 120%.
With `C=C(C)C(=O)Nc1cnc(-c2cc(-c3ccon3)n(Cc3ccccc3F)n2)nc1N` [Compound I-258], the EC50 was less than 20 µM. Moreover, under setting [1], the Emax fell in the range of 40 to 60%. The Emax under setting [2] lay within 60 to 80%. The Emax under setting [3] is 60 to 80%.
Regarding `CN(C)C(=O)Oc1cnc(-c2cc(-c3ccon3)n(Cc3ccccc3F)n2)nc1` [Compound I-274], the Emax is, setting by setting: under setting [1], 20 to 40%; under setting [2], 60 to 80%; under setting [3], 60 to 80%.
`CC(C)(CCl)C(=O)Nc1cnc(-c2cc(-c3ccon3)n(Cc3ccccc3F)n2)nc1N` [Compound I-268]: the EC50 is less than 20 µM. The Emax under setting [1] was in the range of 40 to 60%. For the same molecule, the Emax under setting [2] is 100 to 120%. Further, the Emax under setting [3] was 80 to 100%.
Regarding `CS(=O)(=O)Nc1cnc(-c2cc(-c3ccon3)n(Cc3ccccc3F)n2)nc1N` [Compound I-145], the Emax is 20 to 40% under setting [2] and 20 to 40% under setting [3].
Regarding `O=[N+]([O-])c1c(O)nc(-c2cc(-c3ccon3)n(Cc3ccccc3F)n2)nc1O` [Compound I-282], the 50% effective concentration (EC50) is 900 to 1200 µM. In addition, under setting [1], the Emax was in the range of 0 to 10%. The Emax under setting [2] fell in the range of 0 to 10%. Moreover, under setting [3], the Emax fell in the range of 0 to 10%.
As to `O=c1cc(O)oc2nc(-c3cc(-c4ccon4)n(Cc4ccccc4F)n3)nc(O)c12` [Compound I-248], the half-maximal effective concentration (EC50) lay within 600 to 900 µM. The Emax under setting [1] fell in the range of 0 to 10%. The Emax under setting [2] was in the range of 0 to 10%. Moreover, under setting [3], the Emax was 0 to 10%.
In the case of `Nc1nc(-c2cc(-c3ncco3)n(Cc3ccccc3F)n2)ncc1N=C(c1ccccc1)c1ccccc1` [Compound I-269], the EC50 fell in the range of 100 to 300 µM. Besides, the Emax under setting [1] was in the range of 0 to 10%. Further, the Emax under setting [2] was in the range of 0 to 10%. Also, the Emax under setting [3] is 10 to 20%.
In the case of `CC(C)(C)S(=O)(=O)Nc1cnc(-c2cc(-c3ccon3)n(Cc3ccccc3F)n2)nc1N` [Compound I-251], the EC50 fell in the range of 20 to 40 µM. The Emax under setting [1] lay in the range of 10 to 20%. Further, the Emax under setting [2] is 20 to 40%. Besides, the Emax under setting [3] lay within 20 to 40%.
As to `Oc1nc(-c2cc(-c3ccon3)n(Cc3ccccc3F)n2)ncc1Cl` [Compound I-266], the EC50 was less than 20 µM. For the same molecule, under setting [1], the Emax lay in the range of 20 to 40%. Besides, the Emax under setting [2] was in the range of 60 to 80%. Moreover, under setting [3], the Emax was in the range of 60 to 80%.
As to `Nc1nc(-c2cc(-c3ccon3)n(Cc3ccccc3F)n2)ncc1NC(=O)C1CCCCC1` [Compound I-157], the Emax under setting [2] was in the range of 100 to 120% and the Emax under setting [3] was 80 to 100%.
For `CC(C)(C)C(=O)Nc1cnc(-c2cc(-c3ccon3)n(Cc3ccccc3F)n2)nc1` [Compound I-264], the EC50 was in the range of 300 to 600 µM. The Emax under setting [1] lay in the range of 20 to 40%. For the same molecule, under setting [2], the Emax was 40 to 60%. The Emax under setting [3] lay in the range of 0 to 10%.
For `Oc1cc(O)nc(-c2cc(-c3ccon3)n(Cc3ccccc3F)n2)n1` [Compound I-261] the same measures were 300 to 600 µM, 0 to 10%, 0 to 10% and 0 to 10%.
On to `Fc1ccccc1Cn1nc(-c2ccccn2)cc1-n1cccn1` [Compound I-286], for which the Emax is, setting by setting: under setting [2], 0 to 10%; under setting [3], 10 to 20%.
In the case of `Nc1cnc(-c2cc(-c3ccon3)n(Cc3ccccc3F)n2)nc1` [Compound I-262], the half-maximal effective concentration (EC50) is less than 20 µM. For the same molecule, the Emax under setting [1] fell in the range of 20 to 40%. Moreover, the Emax under setting [2] lay in the range of 60 to 80%. The Emax under setting [3] is 60 to 80%.
Consider `N#Cc1cnc(-c2cc(-c3ncco3)n(Cc3ccccc3F)n2)nc1O` [Compound I-155], for which the EC50 was less than 20 µM. The Emax under setting [2] was 40 to 60%. The Emax under setting [3] was in the range of 60 to 80%.
Consider `CC(C)(C)OC(=O)n1c(=O)[nH]c2nc(-c3cc(-c4ccon4)n(Cc4ccccc4F)n3)ncc21` [Compound I-312], for which the EC50 was 40 to 60 µM. Further, under setting [1], the Emax lay within 20 to 40%. Moreover, under setting [2], the Emax was 20 to 40%. Further, the Emax under setting [3] was 20 to 40%.
As to `CC(C)(C(=O)Nc1cnc(-c2cc(-c3ccon3)n(Cc3ccccc3F)n2)nc1N)n1cncn1` [Compound I-270], the EC50 is less than 20 µM. Besides, under setting [1], the Emax was in the range of 10 to 20%. The Emax under setting [2] was in the range of 40 to 60%. For the same molecule, the Emax under setting [3] lay within 60 to 80%.
Consider `Fc1ccccc1Cn1nc(-c2ncc(F)c(S)n2)cc1-c1ccon1` [Compound I-267], for which the Emax is, setting by setting: under setting [1], 20 to 40%; under setting [2], 60 to 80%; under setting [3], 80 to 100%.
With `CCCC(F)(F)C(=O)Nc1cnc(-c2cc(-c3ccon3)n(Cc3ccccc3F)n2)nc1N` [Compound I-252], the EC50 was less than 20 µM. The Emax under setting [1] was in the range of 40 to 60%. Further, under setting [2], the Emax was 40 to 60%. Further, under setting [3], the Emax is 60 to 80%.
In the case of `Nc1nc(-c2cc(-c3ccon3)n(Cc3ccccc3F)n2)ncc1N1Cc2ccccc2C1=O` [Compound I-259], the EC50 is less than 20 µM. In addition, under setting [1], the Emax lay in the range of 20 to 40%. Under setting [2], the Emax is 60 to 80%. Under setting [3], the Emax was in the range of 60 to 80%.
For the molecule `CC(C)(O)c1cnc(-c2cc(-c3ncco3)n(Cc3ccccc3F)n2)nc1N` [Compound I-146], the Emax under setting [2] was in the range of 40 to 60% and the Emax under setting [3] lay within 40 to 60%.
On to `CC(C)(C)[S+]([O-])Nc1cnc(-c2cc(-c3ccon3)n(Cc3ccccc3F)n2)nc1N[S+]([O-])C(C)(C)C` (stereo not shown) [Compound I-250], for which the EC50 lay in the range of 100 to 300 µM. Also, the Emax under setting [1] lay in the range of 0 to 10%. In addition, the Emax under setting [2] was in the range of 10 to 20%. Also, under setting [3], the Emax fell in the range of 10 to 20%.
